# According to patent US12497460B2, “Anti-MSR1 antibodies and methods of use thereof” (REGENERON PHARMACEUTICALS, INC., priority 2018, dated 2025):
# Read-outs that look alike come from different tables or passages of the source. Marks after values point to notes of the source that are not given here.
# Assays:
# [1] = tested on: LPS-induced IL-1β release in differentiated THP-1 cells; assay: LPS-mediated IL-1β release assay; assay type: cell-based, human; conditions: for IC50: Homo sapiens, 100 ng/ml LPS for 5 hours, read-out: IC50, inhibition of LPS-induced IL-1β secretion
# Experimental: To test the anti-inflammatory properties of anti-MSR1 antibody-steroid conjugates in vitro, a lipopolysaccharide (LPS)-mediated IL-1β release assay was performed. For the assay, THP-1 cells were seeded onto 96 well plates at 40,000 cells/well in media containing RPMI supplemented with 10% FBS and pencillin/streptomycinin and differentiated with 200 nM Phorbol Myristate Acetate (PMA) for 3 days. After the 3-day differentiation period, three-fold serial dilutions of antibody drug conjugates, unconjugated antibodies, or free payloads in fresh media were added to the cells at final concentration ranging from 100 nM to 0.01 nM. Media alone served as a blank control. Subsequently at 24, 48, or 72 hours later, cells were treated with 100 ng/ml LPS (InVivoGen, Cat #tlrl-eklps) for 5 hours. The cell media was then collected, and IL-1β levels were measured using a V-PLEX Proinflammatory Panel 1 human kit (Meso Scale Diagnostics, Cat #15049D-2) as per manufacturer's instructions. Subsequently, the plate was read on a Meso Scale Diagnostics instrument.
# IC50 values were determined from a four-parameter logistic equation over a 10-point response curve (GraphPad Prism). All IC50 values are expressed in M (molar) concentration. The IC50 values and IL-1β amount at the maximum concentration of antibody-steroid conjugates or controls are shown in Table 22 each of the time point tested.
# [2] = tested on: Msr1^hu/hu ApoE^−/− mice, peritoneal cells; assay: Ex vivo LPS-induced cytokine production by peritoneal cells after in vivo dosing; design: species or system mouse; conditions: administered 2 hours before peritoneal cell isolation; ex vivo LPS
# Experimental: To examine the anti-inflammatory effect of the anti-MSR1 antibody-steroid conjugates, an ex-vivo and in vivo LPS-induced inflammatory immune response model was performed.
# Generation of a mouse inflammatory immune response model. Mice homozygously expressing human MSR1 extracellular domain in place of the mouse MSR1 extracellular domain and with a homozygous deletion of the ApoE gene were utilized (resulting mice referred to as Msr1^hu/hu ApoE^−/− mice).
# (§1) Assay protocol for ex vivo LPS-induced responses. In ex vivo LPS challenge experiments, mice were intraperitoneally administered with 10 μL/g of anti-MSR1 antibody-steroid conjugates (H1H21234N-N297Q-LP13), isotype control steroid conjugate (Isotype control-LP13), unconjugated anti-MSR1 antibody (H1H21234N-N297Q) and isotype control antibodies at different time points (24, 48, and 72 hours) prior to harvesting the peritoneal cells from peritoneal cavity. […] All mice were sacrificed at 0 hour time point and peritoneal cells were obtained from the peritoneum by the peritoneal lavage technique. In brief, 5 mL of ice cold 1×PBS (ThermoFisher Scientific, Cat #20012027) containing 2% BSA (Gibco, Cat #A9576) and 0.6 mM EDTA (ThermoFisher Scientific, Cat #15575020) were injected into the peritoneal cavity using 27 g needle. […] The resuspended cells were plated at 500,000 cells per well in 24-well tissues culture plates and incubated with or without 10 ng/mL of LPS for 18 hours.
# Measurement of cytokines at 18 hours post-LPS ex vivo challenge. Supernatants were collected into 96-well round bottom tissue culture plates at 18 hours post-ex vivo LPS challenge and stored at […] until further analysis. Cytokine concentrations in the supernatants were measured using a Proinflammatory Panel 1 (mouse) multiplex immunoassay kit (MesoScale Diagnostics, Cat #K15048D) according to manufacturer's instructions. Electrochemiluminescence was read on a Meso Scale Diagnostics SECTOR® instrument. Data analysis was performed using GraphPad Prism™ software. Statistical significance within the groups was determined by one-way Anova with Turkey's multiple comparison post-test (*p<0.01; **p<0.001; ***p<0.0001).
# [3] = tested on: Msr1^hu/hu ApoE^−/− mice, peritoneal macrophages; assay: LPS-mediated expression of CD80 on peritoneal macrophages (flow cytometry); assay type: in vivo, mouse; conditions: administered 2 hours before
# Experimental: as §1
# Assay protocol for in vivo LPS-induced responses. In in vivo LPS challenge experiments, mice were intraperitoneally administered with 10 μL/g of decreasing concentrations of anti-MSR1 antibody-steroid conjugates (H1H21234N-N297Q-LP13) and isotype control steroid conjugate (Isotype control-N297Q-LP13) at 24 hours prior to in vivo LPS challenge. PBS and free steroid P4 were intraperitoneally injected at 2 hours prior to in vivo LPS challenge. At 0 hour time point, three large drops of blood (volume ˜ 100 μL) were collected from the maxillary vein of each mouse into serum gel separator tubes. The tubes were centrifuged at 2200-2500 rpm for 15 minutes, and the serum was collected into 96-well plates for subsequent measurement of cytokines. At 18 hours post in vivo LPS challenge, the peritoneal cells were obtained from periotenal cavity as aforementioned for subsequent flow cytometry analysis.
# Analysis of expression of activation markers on peritoneal macrophages after LPS ex vivo challenge. Upon collection of supernatants for cytokine analysis, the plates were washed twice with 1×PBS w/o Ca^++/Mg2^++ (ThermoFisher Scientific, Cat #14190144), and the adherent peritoneal cells were harvested by addition of 250-300 μL of cold Macrophage Detachment Solution DXF (PromoCell, Cat #C41330) for 40 minutes. The detached cells were collected into 50-mL tubes and centrifuged at 350×g for 15 minutes. After two washes with 1×PBS supplemented with 2 mM EDTA, the cells were resuspended in Cell Staining Buffer (Biolegend, #420201) and plated at 1×10^6 cells per well in a 96-well V bottom plate. […] Data were analyzed using FlowJo (Tree Star).
# [4] = tested on: hMSR1/ApoE-KO mice; assay: Anti-type II collagen antibody-induced arthritis (CAIA), clinical scores; assay type: in vivo, mouse
# Experimental: An MSR1-non-cytotoxic antibody drug (ncADC) conjugate was tested in anti-type II collagen antibody-induced arthritis (CAIA) in vivo; cytokine detection in inflamed joints using Proinflammatory Panel 1 (mouse) Multiplex Immunoassay kit (MSD)
# To further examine the anti-inflammatory effect of the anti-MSR1 Ab-steroid ncADC, the ncADC was evaluated in a collagen-antibody induced arthritis (CAIA) model in vivo. For the model, mice homozygously expressing human MSR1 extracellular domain and transmembrane domain in place of mouse MSR1 extracellular and transmembrane domains (humanized MSR1) and with a homozygous deletion of the ApoE gene (ApoE-KO) were utilized (resulting mice referred to as hMSR1/ApoE-KO mice).
# (§2) To induce CAIA, hMSR1/ApoE-KO mice were intraperitoneally injected with an 8 mg/kg mixture of five anti-type II collagen mAbs (Chondrex, Cat #53100, Lot #180140) on day 0, followed by intraperitoneal administration with 50 μg lipopolysaccharide (LPS; 0111:B4; Chondrex, Cat #53100, Lot #180141) on day 3. Severity of the […] levels of arthritis was graded up to 13 days after mAb injection in each of the four limbs per mouse on a […]. The criteria for the grading were as follows: 0, normal; 1, mild redness and swelling of ankle/wrist or individual digits; 2, moderate redness and swelling of ankle/wrist; 3, severe redness and swelling of the entire paw including the digits; 4, maximal swelling in limbs involving multiple joints. The maximum value of the sum of the scores obtained from the four limbs of each mouse was 16. […] PBS, unconjugated anti-MSR1 Ab (H1H21234N-N297Q) and free steroid payload (P4-1), were intraperitoneally injected every other day or daily (referred to as P4-1 ED). All mice were sacrificed on day 13 and inflamed patella were collected for subsequent homogenization and cytokine detection.
# [5] = tested on: hMSR1/ApoE-KO mice; assay: CAIA, pro-inflammatory cytokines in joint homogenates; assay type: in vivo, mouse
# Experimental: as §2
# Inflamed knee patella were collected in 2 mL microcentrifuge tubes containing two tungsten carbide beads (Qiagen, Cat #69997) and 500 μL of T-per buffer (Thermo Scientific, Cat #78510, Lot #QF217759) containing protease inhibitor cocktail and 0.5M EDTA (Thermo Scientific, Cat #78444, Lot #RF231047). Tissues were disrupted at the frequency of 30s^−1 for 10 minutes using Qiagen Tissue Lyser II, centrifuged at 14,000 rpm for 7 minutes, and then supernatants were collected without disturbing the pellet. Cytokine concentrations in the supernatants were measured using a Proinflammatory Panel 1 (mouse) multiplex immunoassay kit (MesoScale Discovery, Cat #K15048D) according to the manufacturer's instructions. In brief, 50 μL/well of calibrators and samples (diluted in Diluent 41) were added to the plates pre-coated with capture antibodies and incubated at room temperature while shaking at 700 rpm for 2 hours. The plates were then washed 3 times with 1×PBS containing 0.05% (w/v) Tween-20, followed by the addition of 25 μL of Detection Antibody Solution diluted in Diluent 45. After 2-hour incubation at room temperature while shaking, the plates were washed 3 times, and 150 μL of 2× Read Buffer was added to each well. Electrochemiluminescence was immediately read on MSD Spector© instrument. Cytokine concentrations were normalized per total protein content in tissue homogenates measured using Bradford protein assay (BioRad, Cat #5000006, Lot #64144266). Data analysis was performed using GraphPad Prism™ software. Statistical significance within the groups was determined by one-way Anova with Turkey's multiple comparison post-test (*p<0.01; **p<0.001; ***p<0.0001).
# [6] = tested on: S. aureus MRSA strain NRS384 in humanized MSR1 mice; assay: S. aureus IV disseminated infection mouse model, kidney burden; assay type: in vivo
# Experimental: To test the efficacy of an anti-MSR1 Ab-antibiotic ncADC of the invention in vivo, an intravenous disseminated infection model was utilized. S. aureus MSRA strain NRS384 was grown overnight in trypic soy broth (TSB) and sub-cultured to mid-logarithmic phase. Bacteria were then washed twice with PBS and resuspended in PBS at a concentration of 1.2×10^8 cfu/mL. […] From one to three days post infection, mice were treated with 110 mg/kg vancomycin subcutaneously twice daily where indicated. […] Mice were monitored for weight loss and body conditioning score throughout the infection. At four days post infection, mice were euthanized and the S. aureus kidney burden was quantified by tissue homogenization followed by enumeration of colony forming units through serial dilution in PBS and plating onto trypicase soy agar plates.
# [7] = joint homogenates, 2.95 mg/kg every 2 days
# [8] = vancomycin treatment alone, limit of detection 250 cfu
compound,measurement,setting,value
"C[C@@H]1C[C@H]2[C@@H]3CCC4=CC(=O)C=C[C@]4(C)[C@@]3(F)[C@@H](O)C[C@]2(C)[C@@]1(O)C(=O)CO [Dexamethasone, dexamethasone, reference compound]",IL1beta released at max concentration tested,[1]; 24 hour treatment before LPS,45.33 pg/mL
same,IL1beta released at max concentration tested,[1]; 48 hour treatment before LPS,11.8 pg/mL
same,IL1beta released at max concentration tested,[1]; 72 hour treatment before LPS,13.34 pg/mL
same,IC50,"[1]; THP-1, 24-hour time point",0.42 nM
same,IC50,"[1]; THP-1, 48-hour time point",0.794 nM
same,IC50,"[1]; THP-1, 72-hour time point",0.543 nM
same,Cytokine IL-6,[2],134.5 ± 18.2* ng/mL
same,Cytokine KC-GRO,[2],19.9 ± 1.5 ng/mL
same,Cytokine TNF-α,[2],0.63 ± 0.11* ng/mL
same,"LPS-mediated expression of CD80, pMΦ Cells",[3]; hMSR1+F4/80+CD11b+ peritoneal macrophages,77.69 ± 2.6 % relative to PBS/LPS-treatment
same,"LPS-mediated expression of CD80, non-pMΦ Cells",[3]; hMSR1−F4/80−CD11b− cells,99.6 ± 5.8 % relative to PBS/LPS-treatment
"CCC[C@@H]1O[C@@H]2C[C@H]3[C@@H]4C[C@H](F)C5=CC(=O)C=C[C@]5(C)[C@@]4(F)[C@@H](O)C[C@]3(C)[C@]2(C(=O)CN)O1 [P4-1, (1S,2S,4R,6R,8S,9S,11S,12R,13S,19S)-8-(2-Aminoacetyl)-12,19-difluoro-11-hydroxy-9,13-dimethyl-6-propyl-5,7-dioxapentacyclo[10.8.0.0^2,9.0^4,8.0^13,18]icosa-14,17-dien-16-one]",Clinical Score,"[4]; 2.95 mg/kg, every 2 days d6-d12",9.4 ± 2.46
same,inhibition of CAIA,"[4]; dosed every day (P4-1ED), compared with H1H21234N-N297Q-P4-3 at 21 mg/kg",Comparable inhibition of CAIA
same,severity of CAIA (clinical scores),[4]; every other day,did not attenuate CAIA
same,pro-inflammatory cytokine levels in inflamed joints,[5]; administered every other day,No effect
same,Cytokines IL-1β,[5]; [7],20.6 ± 4.3 pg per mg of total protein
same,Cytokines IL-6,[5]; [7],131.4 ± 40.9 pg per mg of total protein
same,Cytokines KC-GRO,[5]; [7],8.9 ± 9 pg per mg of total protein
same,Cytokines TNF-α,[5]; [7],8.3 ± 1.9 pg per mg of total protein
CN[C@H](CC(C)C)C(=O)N[C@H]1C(=O)N[C@@H](CC(N)=O)C(=O)N[C@H]2C(=O)N[C@H]3C(=O)N[C@H](C(=O)N[C@H](C(=O)O)c4cc(O)cc(O)c4-c4cc3ccc4O)[C@H](O)c3ccc(c(Cl)c3)Oc3cc2cc(c3O[C@@H]2O[C@H](CO)[C@@H](O)[C@H](O)[C@H]2O[C@H]2C[C@](C)(N)[C@H](O)[C@H](C)O2)Oc2ccc(cc2Cl)[C@H]1O [vancomycin],reduction of S. aureus kidney burden,"[6]; 110 mg/kg s.c. twice daily, days 1 to 3 post infection, day 4",approximately 2 logs
same,mice with S. aureus levels below the LOD (in words),"[6]; vancomycin alone, 110 mg/kg s.c. twice daily",none of the mice had levels of S. aureus reduced below the limit of detection
same,# of mice with S. aureus below the limit of detection,[6]; [8],0/6
same,Average cfu/kidney pair,[6]; [8],2.07E+06 cfu/kidney pair
